Reference: patent US9493426B2, “Quinazolinone derivatives useful as FGFR kinase modulators” (priority 2013, dated 2016)
Read-outs that look alike come from different tables or passages of the source.

Assays:
[1] = target: T1, Ba/F3-FGFR1-transfected cells (Homo sapiens, UniProt P11362); test: Ba/F3-FGFR1 (minus IL3 or plus IL3) cellular proliferation assay; format: cell-based; details: 24 hours, Alamar Blue
T1 construct: other: minus IL3; 24 hours, Alamar Blue
Method: Ba/F3-FGFR1 (Minus IL3 or Plus IL3) (Cellular Proliferation Assay)
(§1) In a 384 well plate, 100 nl of compound dilution in DMSO was sprayed before adding 50 μl cell culture medium (phenol red free RPMI-1640, 10% FBS, 2 mM L-Glutamine and 50 μg/ml Gentamycin) containing 20000 cells per well of Ba/F3-FGFR1-transfected cells. Cells were put in an incubator at 37° C. and 5% CO2. After 24 hours, 10 μl of Alamar Blue solution (0.5 mM K3Fe(CN)6, 0.5 mM K4Fe(CN)6, 0.15 mM Resazurin and 100 mM Phosphate Buffer) was added to the wells, incubated for 4 hours at 37° C. and 5% CO2 before RFU's (Relative Fluorescence Units) (ex. 540 nm., em. 590 nm.) were measured in a fluorescence plate reader.
(§2) In this assay, the inhibitory effect of different compound concentrations (range 10 μM to 0.1 nM) was determined and used to calculate an IC50 (M) and pIC50 (−log IC50) value. As a counterscreen the same experiment was performed in the presence of 10 ng/ml murine IL3.

FGFR2 (h) = FGFR2 (h) (Homo sapiens, UniProt P21802); test: FGFR2 (enzymatic assay), TR-FRET; format: biochemical
[2] = target: T2, Ba/F3-FGFR3-transfected cells (Homo sapiens, UniProt P22607, cells depend on it, form not given); test: Ba/F3-FGFR3 (minus IL3 or plus IL3) cellular proliferation assay; format: cell-based; details: 24 hours, Alamar Blue
T2 construct: BAF3-FGFR3 (MIN IL3 pIC50); other: minus IL3; 24 hours, Alamar Blue
Method: Ba/F3-FGFR3 (Minus IL3 or Plus IL3) (Cellular Proliferation Assay)
as §1, with “Ba/F3-FGFR3-transfected” for “Ba/F3-FGFR1-transfected”
as §2

[3] = target: T3, Ba/F3-KDR-transfected cells (Homo sapiens, UniProt P35968, cells depend on it, form not given); test: Ba/F3-KDR (minus IL3 or plus IL3) cellular proliferation assay; format: cell-based; details: 24 hours, Alamar Blue
T3 construct: BAF3-KDR (MIN IL3 pIC50); other: minus IL3; 24 hours, Alamar Blue
Method: Ba/F3-KDR (Minus IL3 or Plus IL3) (Cellular Proliferation Assay)
as §1, with “Ba/F3-KDR-transfected” for “Ba/F3-FGFR1-transfected”
as §2

KDR (h) = KDR (h) (Homo sapiens, UniProt P35968); test: KDR (VEGFR2) (enzymatic assay), TR-FRET; format: biochemical; details: 3 μM ATP; pIC50 = -log IC50 (M); read-out: VEGFR KDR pIC50 (converted)
Method: KDR (VEGFR2) (Enzymatic Assay)
In a final reaction volume of 30 μL, KDR (h) (150 ng/ml) was incubated with 50 mM HEPES pH 7.5, 6 mM MnCl2, 1 mM DTT, 0.1 mM Na3VO4, 0.01% Triton-X-100, 500 nM Btn-Flt3 and 3 μM ATP in the presence of compound (1% DMSO final). After incubation for 120 minutes at room temperature the reaction was stopped with 2.27 nM EU-anti P-Tyr, 7 mM EDTA, 31.25 nM SA-XL-665 and 0.02% BSA which was present for 60 minutes at room temperature. Time-Resolved Fluorescence Resonance Energy Transfer (TR-FRET) signal (ex340 nm. Em 620 nm, em 655 nm) was measured afterwards and results are expressed in RFU (Relative Fluorescence Units). In this assay, the inhibitory effect of different compound concentrations (range 10 μM to 0.1 nM) was determined and used to calculate an IC50 (M) and pIC50 (−log IC50) value.

FGFR4 (h) = FGFR4 (h) (Homo sapiens, UniProt P22455); test: FGFR4 (enzymatic assay), TR-FRET; format: biochemical; details: 5 μM ATP; pIC50 = -log IC50 (M); read-out: FGFR 4 pIC50 (converted)
FGFR1 (h) = FGFR1 (h) (Homo sapiens, UniProt P11362); test: FGFR1 (enzymatic assay), TR-FRET; format: biochemical
[4] = target: Ba/F3-FGFR4-transfected cells (Homo sapiens, UniProt P22455, cells depend on it, form not given); test: Ba/F3-FGFR4 cellular proliferation assay; format: cell-based; details: 24 hours, Alamar Blue
Method: Ba/F3-FGFR4 (Cellular Proliferation Assay)
as §1, with “Ba/F3-FGFR4-transfected” for “Ba/F3-FGFR1-transfected”
In this assay, the inhibitory effect of different compound concentrations (range 10 μM to 0.1 nM) was determined and used to calculate an IC50 (M) and pIC50 (−log IC50) value.

FGFR3 (h) = FGFR3 (h) (Homo sapiens, UniProt P22607); test: FGFR3 (enzymatic assay), TR-FRET; format: biochemical; details: 25 μM ATP; pIC50 = -log IC50 (M); read-out: FGFR3 pIC50 (converted)
[5] = 0.4 μM ATP, pIC50 = -log IC50 (M), read-out: FGFR 2 pIC50 (converted)

Chain of FGFR4 (h) (P22455 22-802): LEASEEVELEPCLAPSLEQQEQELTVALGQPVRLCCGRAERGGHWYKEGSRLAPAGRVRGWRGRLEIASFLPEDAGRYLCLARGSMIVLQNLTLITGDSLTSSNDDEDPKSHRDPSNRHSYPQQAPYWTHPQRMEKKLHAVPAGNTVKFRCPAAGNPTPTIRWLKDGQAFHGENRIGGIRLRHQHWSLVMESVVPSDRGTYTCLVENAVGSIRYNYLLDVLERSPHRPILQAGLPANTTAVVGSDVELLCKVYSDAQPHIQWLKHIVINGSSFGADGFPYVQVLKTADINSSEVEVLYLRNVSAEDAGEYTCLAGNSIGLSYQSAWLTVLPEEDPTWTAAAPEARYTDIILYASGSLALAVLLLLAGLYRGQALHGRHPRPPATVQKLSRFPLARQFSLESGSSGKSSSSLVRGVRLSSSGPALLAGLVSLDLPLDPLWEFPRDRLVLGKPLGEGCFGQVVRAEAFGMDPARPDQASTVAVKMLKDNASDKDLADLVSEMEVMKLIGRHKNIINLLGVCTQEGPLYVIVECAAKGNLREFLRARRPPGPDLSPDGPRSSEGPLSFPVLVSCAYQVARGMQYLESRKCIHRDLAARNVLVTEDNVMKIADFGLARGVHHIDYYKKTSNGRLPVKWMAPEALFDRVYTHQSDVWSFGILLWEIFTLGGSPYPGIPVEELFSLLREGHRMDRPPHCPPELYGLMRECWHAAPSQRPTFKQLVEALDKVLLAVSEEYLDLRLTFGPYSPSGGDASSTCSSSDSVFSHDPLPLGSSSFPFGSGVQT
Chain of FGFR3 (h) (P22607 23-806): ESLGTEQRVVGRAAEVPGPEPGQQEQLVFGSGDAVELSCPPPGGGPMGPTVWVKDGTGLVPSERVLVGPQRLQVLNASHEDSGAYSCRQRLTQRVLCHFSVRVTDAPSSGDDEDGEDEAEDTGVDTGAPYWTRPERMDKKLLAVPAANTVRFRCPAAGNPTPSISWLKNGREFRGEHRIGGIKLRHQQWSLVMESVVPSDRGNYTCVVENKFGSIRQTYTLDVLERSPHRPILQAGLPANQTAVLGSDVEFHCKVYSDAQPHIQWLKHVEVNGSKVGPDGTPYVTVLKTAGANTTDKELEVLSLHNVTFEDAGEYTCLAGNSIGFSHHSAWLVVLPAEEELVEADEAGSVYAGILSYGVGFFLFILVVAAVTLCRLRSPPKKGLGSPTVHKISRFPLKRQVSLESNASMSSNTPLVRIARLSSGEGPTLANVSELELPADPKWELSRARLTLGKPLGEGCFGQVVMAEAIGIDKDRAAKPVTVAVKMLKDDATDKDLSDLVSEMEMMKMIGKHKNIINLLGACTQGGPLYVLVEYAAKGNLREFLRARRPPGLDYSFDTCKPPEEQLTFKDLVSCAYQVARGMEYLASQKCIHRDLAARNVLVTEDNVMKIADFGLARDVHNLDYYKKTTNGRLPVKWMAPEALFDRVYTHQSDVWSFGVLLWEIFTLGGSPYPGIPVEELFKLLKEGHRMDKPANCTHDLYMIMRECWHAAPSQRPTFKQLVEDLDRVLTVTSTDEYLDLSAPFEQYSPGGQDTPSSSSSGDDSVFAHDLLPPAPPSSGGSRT
Chain of FGFR1 (h) (P11362 22-822): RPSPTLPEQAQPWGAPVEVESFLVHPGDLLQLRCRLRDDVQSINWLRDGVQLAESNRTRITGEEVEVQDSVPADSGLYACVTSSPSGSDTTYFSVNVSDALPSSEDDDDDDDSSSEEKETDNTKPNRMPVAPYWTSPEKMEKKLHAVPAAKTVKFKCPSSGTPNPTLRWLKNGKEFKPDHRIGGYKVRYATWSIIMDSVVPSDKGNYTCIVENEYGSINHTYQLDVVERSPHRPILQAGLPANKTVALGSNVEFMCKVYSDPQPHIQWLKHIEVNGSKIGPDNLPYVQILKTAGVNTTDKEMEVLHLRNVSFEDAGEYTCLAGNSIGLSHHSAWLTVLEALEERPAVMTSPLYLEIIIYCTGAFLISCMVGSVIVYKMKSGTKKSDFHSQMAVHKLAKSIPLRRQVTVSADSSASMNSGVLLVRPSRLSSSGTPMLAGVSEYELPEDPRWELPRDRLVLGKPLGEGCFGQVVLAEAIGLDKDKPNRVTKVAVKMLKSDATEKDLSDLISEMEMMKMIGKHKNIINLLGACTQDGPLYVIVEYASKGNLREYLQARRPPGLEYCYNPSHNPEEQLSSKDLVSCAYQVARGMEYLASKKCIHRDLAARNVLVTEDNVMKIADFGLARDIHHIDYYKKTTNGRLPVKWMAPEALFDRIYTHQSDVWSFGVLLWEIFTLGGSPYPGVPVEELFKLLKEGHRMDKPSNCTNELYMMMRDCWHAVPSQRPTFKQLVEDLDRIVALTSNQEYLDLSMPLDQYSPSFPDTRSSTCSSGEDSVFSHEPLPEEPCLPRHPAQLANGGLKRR
Chain of KDR (h) (P35968 20-1356): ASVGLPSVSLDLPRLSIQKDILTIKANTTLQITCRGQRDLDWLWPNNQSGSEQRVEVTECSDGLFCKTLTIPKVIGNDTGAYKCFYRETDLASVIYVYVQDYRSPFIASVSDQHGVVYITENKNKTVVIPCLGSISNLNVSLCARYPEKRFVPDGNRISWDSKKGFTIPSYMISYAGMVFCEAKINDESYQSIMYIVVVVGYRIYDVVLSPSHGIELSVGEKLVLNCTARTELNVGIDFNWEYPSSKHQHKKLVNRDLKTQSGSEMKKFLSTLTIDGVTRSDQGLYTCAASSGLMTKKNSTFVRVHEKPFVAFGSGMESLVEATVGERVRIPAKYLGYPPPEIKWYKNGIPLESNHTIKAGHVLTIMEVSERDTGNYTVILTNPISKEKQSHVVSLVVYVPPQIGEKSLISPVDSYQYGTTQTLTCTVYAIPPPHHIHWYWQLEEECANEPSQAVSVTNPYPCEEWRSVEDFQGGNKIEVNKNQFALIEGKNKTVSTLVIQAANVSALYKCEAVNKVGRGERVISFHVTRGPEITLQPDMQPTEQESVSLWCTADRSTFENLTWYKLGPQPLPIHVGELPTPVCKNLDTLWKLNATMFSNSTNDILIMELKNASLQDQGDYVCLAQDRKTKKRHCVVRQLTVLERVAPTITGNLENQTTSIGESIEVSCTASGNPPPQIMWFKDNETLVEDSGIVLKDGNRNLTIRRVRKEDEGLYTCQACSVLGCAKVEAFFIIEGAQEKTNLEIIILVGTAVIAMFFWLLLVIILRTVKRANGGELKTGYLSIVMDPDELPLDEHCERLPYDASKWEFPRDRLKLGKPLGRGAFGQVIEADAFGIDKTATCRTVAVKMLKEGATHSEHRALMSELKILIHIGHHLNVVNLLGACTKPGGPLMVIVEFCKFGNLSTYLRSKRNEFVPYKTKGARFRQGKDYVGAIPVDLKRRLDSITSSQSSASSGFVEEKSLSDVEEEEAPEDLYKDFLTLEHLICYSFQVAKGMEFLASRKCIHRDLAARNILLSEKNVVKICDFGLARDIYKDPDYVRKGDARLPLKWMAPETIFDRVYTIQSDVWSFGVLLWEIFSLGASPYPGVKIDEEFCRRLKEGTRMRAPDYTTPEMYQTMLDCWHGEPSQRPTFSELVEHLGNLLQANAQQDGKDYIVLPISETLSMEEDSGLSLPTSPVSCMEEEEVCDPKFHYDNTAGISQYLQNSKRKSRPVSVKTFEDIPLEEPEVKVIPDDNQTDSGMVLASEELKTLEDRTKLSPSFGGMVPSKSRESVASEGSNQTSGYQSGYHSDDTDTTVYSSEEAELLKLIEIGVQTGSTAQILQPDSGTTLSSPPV
T1 sequence (P11362 whole entry, change not shown): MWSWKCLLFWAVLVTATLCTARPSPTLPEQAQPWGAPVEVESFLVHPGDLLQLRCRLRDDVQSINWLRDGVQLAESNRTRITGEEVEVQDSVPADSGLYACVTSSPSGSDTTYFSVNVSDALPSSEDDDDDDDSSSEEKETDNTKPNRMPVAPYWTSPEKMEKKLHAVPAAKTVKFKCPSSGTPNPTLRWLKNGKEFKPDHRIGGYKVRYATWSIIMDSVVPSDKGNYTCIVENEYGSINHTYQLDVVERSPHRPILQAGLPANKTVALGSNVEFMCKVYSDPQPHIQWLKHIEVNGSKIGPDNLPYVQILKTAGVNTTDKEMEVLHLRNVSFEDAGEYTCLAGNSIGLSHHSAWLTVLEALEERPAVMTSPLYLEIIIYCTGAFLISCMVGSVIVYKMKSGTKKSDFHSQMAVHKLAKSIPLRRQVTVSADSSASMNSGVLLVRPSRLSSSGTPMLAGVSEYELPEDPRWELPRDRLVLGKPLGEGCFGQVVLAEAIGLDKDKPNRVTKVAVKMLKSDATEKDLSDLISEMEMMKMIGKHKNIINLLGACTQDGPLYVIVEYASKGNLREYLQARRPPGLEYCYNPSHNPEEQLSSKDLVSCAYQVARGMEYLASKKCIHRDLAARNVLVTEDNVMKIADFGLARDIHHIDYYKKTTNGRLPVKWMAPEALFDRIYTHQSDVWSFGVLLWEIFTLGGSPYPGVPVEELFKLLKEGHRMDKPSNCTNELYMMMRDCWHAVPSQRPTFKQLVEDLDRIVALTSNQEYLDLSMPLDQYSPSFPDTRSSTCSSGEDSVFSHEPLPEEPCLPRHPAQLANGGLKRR

| Compound | BAF3-FGFR1 (MIN IL3 pIC50) [1] | IC50 (FGFR2 (h); [5]) [M] | BAF3-FGFR3 (MIN IL3 pIC50) [2] | BAF3-KDR (MIN IL3 pIC50) [3] | IC50 (KDR (h)) [M] | IC50 (FGFR4 (h)) [M] | IC50 (FGFR1 (h)) [µM] | BAF3-FGFR4 (pIC50) [4] | melting point [°C] | IC50 (FGFR3 (h)) [M] | IC50 (FGFR2 (h)) [M] |
| --- | --- | --- | --- | --- | --- | --- | --- | --- | --- | --- | --- |
| COc1cc(OC)cc(N(CCNC(C)C)c2ccc3ncn(-c4cnn(C)c4)c(=O)c3c2)c1 [Compound 9] | 7.2 | 6.31e-09 | ~7.09 | 5.2 | 5.01e-07 | 5.01e-08 | 0.00501 | 6.2 | 142 | 1e-08 |  |
| COc1cc(OC)c(Cl)c(N(CCO)c2ccc3ncn(-c4cnn(C)c4)c(=O)c3c2)c1Cl [Compound 10] | 6.2 | 1.58e-08 | 6.3 | ~5 | 5.01e-07 | 2e-07 | 0.0126 | 5.1 | 223 | 7.94e-09 |  |
| COc1cc(OC)c(Cl)c(N(CCNC(C)C)c2ccc3ncn(-c4cnn(C)c4)c(=O)c3c2)c1Cl [Compound 11] | 7.4 | 6.31e-08 | 7.3 | 5.4 | 5.01e-07 | 1.58e-07 | 0.0126 | 6.3 | 195 | 3.98e-08 |  |
| COc1cc(OC)c(Cl)c(N(Cc2ncc[nH]2)c2ccc3ncn(-c4cnn(C)c4)c(=O)c3c2)c1Cl [Compound 13] | 5.5 |  | 5.9 | 5.1 | 2.51e-07 | 1.26e-07 | 0.0158 | 5.2 |  | 1.26e-08 | 1.58e-08 |
| COc1cc(OC)c(F)c(N(Cc2ncc[nH]2)c2ccc3ncn(-c4cnn(C)c4)c(=O)c3c2)c1 [Compound 15] | 6.7 |  | ~7.15 | <5 | 3.98e-07 | 7.94e-09 | 0.00501 | 5.8 | 212 | 2.51e-09 | 5.01e-09 |
| COc1cc(OC)c(F)c(N(CCO)c2ccc3ncn(-c4cnn(C)c4)c(=O)c3c2)c1 [Compound 16] | 6.3 | 5.01e-09 | 6.4 | 5.2 | 2e-07 | 2.51e-08 | 0.0126 | 5.7 | 164 | 2.51e-09 |  |
| COc1cccc(C(=O)c2ccc3ncn(-c4cnn(C)c4)c(=O)c3c2)c1 [Compound 23] | <5 | > 1e-06 | <5 | <5 | > 1e-06 | > 1e-06 | > 1 | <5 |  | > 1e-06 |  |
